For test [1], the system named is LNCaP. The experiment in a line: Evaluated for its growth enhancement or mitogenic activity using LNCaP prostate cultures. Format: functional, Homo sapiens, Prostate gland.
Test [2] has as its system LNCaP. Briefly: Evaluated for its growth enhancement or mitogenic activity using LNCaP prostate cultures. In kind it is functional, cell-based. To be noted: Homo sapiens, Prostate gland.

As to `CCCCC/C=C\C/C=C\C/C=C\C=C\C(O)CCCC(=O)N(C)C` (stereo not given), in test [1], the Control came out at 138%. Turning to `CCCCC/C=C\C/C=C\C/C=C\C=C\C(O)CCCC(=O)c1cnccn1` (stereo not given), the Control in test [1] is on record as 113%.

For `CCCCC/C=C\C/C=C\C/C=C\C=C\C(O)CCCC(=O)NOC` (stereo not given), the Control in test [1] is on record as 133%. As for `CCCCC/C=C\C/C=C\C/C=C\C=C\C(O)CCCC(=O)NCCO` (stereo not given), the Control in test [1] turned out to be 125%. Regarding `CCCCC/C=C\C/C=C\C/C=C\C=C\C(O)CCCC(=O)N(C)OC` (stereo not given), the Control in test [1] is given as 115%.

For `CCCCC/C=C\C/C=C\C/C=C\C=C\C(O)CCCC(=O)N1CCOCC1` (stereo not given), the Control in test [1] turned out to be 106%. On the same count and under the same terms, to `CCCCC/C=C\C/C=C\C/C=C\C=C\C(N)CCCC(=O)O` (stereo not given) belongs 116%. As to `CCCCC/C=C\C/C=C\C/C=C\C=C\C(O)CCCC(=O)OC` (stereo not given), the Control in test [1] was 111%. For `CCCCC/C=C\C/C=C\C/C=C\C=C\C(CCCC(=O)O)NC` (stereo not given), the Control in test [1] worked out at 125%. Still for that read-out and setting: as for `CCCCC/C=C\C/C=C\C/C=C\C=C\C(O)CCCC(=O)NO` (stereo not given), the figure is 3%. The same measure, in the same setting: as for `CCCCC/C=C\C/C=C\C/C=C\C=C\C(O)CCCC(=O)O` (stereo not given), the figure is 116%; as for `CCCCC/C=C\C/C=C\C/C=C\C=C\C(O)CCCC(=O)NCCCN` (stereo not given), 116%. With `CCCCCCCC/C=C\CCCCCCCC(=O)NCCO`, the Control entry in test [2] was “No effect”. On to `CCCCC/C=C\C/C=C\C/C=C\C=C\C(O)CCCC(=O)N1CCCCC1` (stereo not given), for which the Control in test [1] is 123%. Turning to `CCCCC/C=C\C/C=C\C/C=C\C/C=C\CCCC(=O)NCCO` [ANANDAMIDE], the Control in test [1] was determined as 112%.

For the molecule `CCCCC/C=C\C/C=C\C/C=C\C=C\C(O)CCCC(=O)NN` (stereo not given), the Control in test [1] came out at 60%.

Consider `CCCCC/C=C\C/C=C\C/C=C\C=C\C1CCCC(=O)N1` (stereo not given), for which, in test [1], the Control came out at 121%. On the same count and under the same terms, as for `CCCCC/C=C\C/C=C\C/C=C\C=C\C1CCCC(=O)N1C` (stereo not given), the figure is 131%; as for `CCCCC/C=C\C/C=C\C/C=C\C=C\C(O)CCCC(=O)NC` (stereo not given), 108%; as for `CCCCC/C=C\C/C=C\C/C=C\C=C\C(O)CCCC(N)=O` (stereo not given), 108%.

These data come from ChEMBL document CHEMBL1133286, “5-HETE congeners as modulators of cell proliferation” (2000).
